# Article PMC10154775, “Specificity of Penicillin Acylases in Deprotection of N-Benzyloxycarbonyl Derivatives of Amino Acids” (Acta Naturae, 2023)
# Biological target: T1, Penicillin acylase from Escherichia coli (Escherichia coli, UniProt P06875)
# T1 construct: gene pac; prepared by a procedure described earlier
# Test: KM as competitive inhibition constant of NIPAB hydrolysis, […] nm
# Type: biochemical
# Settings: pH 7.5, 0.01 M phosphate, 0.1 M KCl, 25 C; competitive with NIPAB
# T1 sequence (P06875 27-235, looked up): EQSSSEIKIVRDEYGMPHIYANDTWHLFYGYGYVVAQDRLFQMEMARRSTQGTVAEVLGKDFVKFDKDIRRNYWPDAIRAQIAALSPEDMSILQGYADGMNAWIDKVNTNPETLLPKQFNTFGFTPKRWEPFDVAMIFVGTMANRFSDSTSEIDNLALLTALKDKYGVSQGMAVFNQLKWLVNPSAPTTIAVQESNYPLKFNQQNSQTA
# T1 sequence (P06875 290-846, looked up): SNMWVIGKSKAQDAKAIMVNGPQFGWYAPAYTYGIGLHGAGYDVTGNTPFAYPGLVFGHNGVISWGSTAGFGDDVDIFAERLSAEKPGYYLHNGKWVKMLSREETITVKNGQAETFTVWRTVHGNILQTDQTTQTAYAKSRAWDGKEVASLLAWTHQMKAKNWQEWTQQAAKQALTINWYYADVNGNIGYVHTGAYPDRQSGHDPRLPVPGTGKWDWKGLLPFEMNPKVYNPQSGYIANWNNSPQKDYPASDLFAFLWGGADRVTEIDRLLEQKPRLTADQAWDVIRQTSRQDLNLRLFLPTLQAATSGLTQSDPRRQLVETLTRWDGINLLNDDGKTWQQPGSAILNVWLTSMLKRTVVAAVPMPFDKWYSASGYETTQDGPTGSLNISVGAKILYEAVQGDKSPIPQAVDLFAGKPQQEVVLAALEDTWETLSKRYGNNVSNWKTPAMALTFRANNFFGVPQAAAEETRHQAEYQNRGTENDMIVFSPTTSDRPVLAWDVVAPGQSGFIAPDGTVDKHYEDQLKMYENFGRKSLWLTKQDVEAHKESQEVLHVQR
row,Compound,KM
1,O=C(O)C[C@H](NC(=O)OCc1ccccc1)C(=O)O [N-benzyloxycarbonyl derivative of aspartic acid],the least effective binding substrates for penicillin acylase from Escherichia coli are derivatives of aspartic acid
2,C[C@H](NC(=O)OCc1ccccc1)C(=O)O [N-benzyloxycarbonyl-L-Ala],expressed as the catalytic constant value (%) with respect to the corresponding alanine derivatives
3,O=C(O)C[C@H](NC(=O)Cc1ccccc1)C(=O)O [N-phenylacetyl derivative of aspartic acid],the least effective binding substrates for penicillin acylase from Escherichia coli are derivatives of aspartic acid
